Results on 1 compound are retold here after patent publication US20240158359A1, “HYDROLYSIS-RESISTANT ESTERS FOR DRUG AND IMAGING AGENT DELIVERY” (The Board of Trustees of the University of lllinois, priority 2022, published 2024).

Each structure is given as a SMILES string.

For data set [1], the system named is A549 cells. As to the kind of experiment: Detection of NTR activity in A549 lung cancer cells cultured in hypoxia or normoxia, lysate BL imaging. Type of data set: cell-based. The method, then:
Next, we performed a cell imaging study to measure hypoxia within a living system. Specifically, A549 cells (not expressing Luc) were cultured in an atmosphere consisting of 1% or 20% oxygen for 2 days to mimic hypoxic conditions (1%) or normoxic (20%), respectively. Because aryl nitro reduction mediated by mammalian NTRs can be inhibited by molecular oxygen, we expect there to be greater probe activation under oxygen-deficient conditions. After incubating with BL660-NTR for 60 minutes, the cells were washed with fresh PBS, detached, pelleted, and lysed via sonication. The lysates were then transferred to 24-well plates, treated with luciferase and imaged immediately using the IVIS imaging system. […] This represents a significant 4.5-fold difference in BL intensity.
A549 cells were seeded in T75 culture flasks and incubated in 1% or 20% oxygen atmosphere for 48 hours. A solution of BL660-NTR in DMSO (2 mM, 50 μL) was quickly added into each flask such that the final concentration of the probe is 10 μM and 0.5% DMSO. The cells were incubated with the probe for 60 minutes (under the respective culture conditions), washed with fresh PBS, and detached from the culture flasks. The cells were then transferred to a 15 mL centrifuge tube and pelleted at 1000 rpm for 5 min at room temp. The cells (4.25×10^6 cells/mL) were then resuspended in PBS along with 10% protease inhibitor solution (1 protease inhibitor mini tablet per 10 mL PBS, Pierce, Thermo Fisher Scientific) and sonicated on ice for 2.5 minutes (pulse 01, 01, 40%). The cell debris was removed via centrifugation at 4° C. The cell lysates were further diluted 2.5-fold by PBS and 475 μL were transferred into 24-well plates (n=4 for each condition), treated with luciferase (25 μL, 0.25 mg/mL), and imaged immediately using the IVIS imaging system. Bioluminescence light was collected in open mode (no filters were applied). ROIs were drawn around each well. The signal intensity was quantified using the Living Image Analysis Software.

The next data set addresses NTR (Escherichia coli, UniProt P38489). How it is done: Dose-dependence Activation of BL660-NTR (FIG. 4a) by NTR: The response of BL660-NTR (5 μM) against different concentrations of NTR was measured in a 96-well culture plate and was monitored using the IVIS imaging system. BL660-NTR was incubated with either 0.01 U or 0.1 U NTR at 37° C. for 15 min before the wells were treated with ATP-MgSO4 and luciferase to initiation bioluminescence production. Light was collected immediately after mixing, and the signal enhancement was determined relative to control wells not treated with enzyme. The total volume of each well was 100 μL (PBS (pH 7.4) with 0.5% DMSO). All data is reported as the mean±standard deviation (n=5).

The next data set deals with A549-Luc2 tumors. As to the kind of experiment: BL imaging of tumor hypoxia in a lung cancer model. It counts as in vivo, NU/J mice. How it is done: NU/J mice (male, ˜5-weeks old) were inoculated with A549-Luc2 lung cancer cells (5×10^6) in both flanks. Testing of BL660-NTR commenced after tumors had grown to a volume of ˜300 mm^3 (˜4 weeks). First, we performed imaging using BL660-NTR, which was administered systemically via retroorbital injection (ROI) (FIG. 5a (upper horizontal row of points) and FIG. 14). ROIs were drawn around each tumor and the luminescent count was summed for each animal. […] The BL intensity appears to decrease slightly after 15 mins and levels off until the end of the experiment (75 mins) (FIG. 5c).
Next, to distinguish between NTR activation and off-target ester hydrolysis, we employed Compound (4) as a control reagent, which only differs in that the nitro trigger is absent (FIG. 1a). After approximately 20 hours, the same animals were treated with Compound (4) and imaged (FIG. 5b and FIG. 15). This delay was to ensure the probe had fully cleared from the first experiment. […] The total luminescent count after 15 mins for Compound 4 was only 4.0±0.7×10^3; whereas the corresponding readout was 16.6±2.5×10^3 for BL660-NTR. This represents a […] difference, indicating successful detection of tumor hypoxia (FIG. 5d).
NU/J mice bearing A549-Luc2 tumors were anesthetized using isoflurane (1-3% for maintenance; up to 5% for induction) in oxygen from a precision vaporizer. After testing to ensure animals are fully under anesthesia, an initial background scan is recorded. BL660-NTR or compound 4 formulated in 3:7 v/v DMSO:PBS. The solution was filtered through a […] sterile filter immediately prior to use. The typical injection volume is ˜100 μM at a dose of 2.2 μmol/kg. The solution was then administered via retroorbital injection. Images were captured using the IVIS® imaging system at 5, 15, 30, 45, 60, and 75 minutes after injection. Bioluminescence light was collected in open mode (no filters were applied). Regions of interest (“ROIs”) were drawn around each tumor and summed for each animal. The signal intensity was quantified using the Living Image Analysis Software and is represented in FIGS. 5c and 5d.
Generation of a Subcutaneous Lung Cancer Model: A549 cells were treated with vehicle (media only) or 50 μM DETA NONOate in media for 10 days. Cells were washed with PBS, resuspended in serum-free media (Hams F-12K), and mixed 1:1 with Geltrex (v/v) (to a final concentration of 5×10^7 cells/mL). Tumors were generated by subcutaneously injecting 100 μL of these cell solutions into the flanks of 4-week-old Nu/J mice (The Jackson Laboratory stock #: 002019).
BL660-NTR was dissolved in DMSO and diluted with PBS (3:7 v/v DMSO:PBS). The solution was filtered through a […] sterile filter immediately prior to use. The typical injection volume is ˜100 μM at a dose of 2.2 μmol/kg.
Compound 4 was dissolved in DMSO and diluted with PBS (3:7 v/v DMSO:PBS). The solution was filtered through a […] sterile filter immediately prior to use. The typical injection volume is ˜100 μM at a dose of 2.2 μmol/kg.

Data set [2] has as its system A549 cells. As to the kind of experiment: MTT cytotoxicity assay of BL660-NTR. Type of data set: cell-based. As to conditions: 0 to 20 μM, up to 3 hours. How it is done:
Prior to testing BL660-NTR in vivo, we assessed potential cytotoxicity by treating A549 cells with BL660-NTR across a concentration range of 0 to 20 μM for up to 3 hours.
MTT Cytotoxicity Assay. 24-well plates were seeded with 180,000 cells per well (500 μL of 360,000 cells/mL) and incubated at 37° C. with 5% CO2 for 24 h (˜70% confluent). Media was removed and fresh RPMI 1640 media with 10% FBS containing 0, 5, 10 or 20 μM BL660-NTR (1% DMSO final v/v) was added. The media was removed after 1 and 3 h and replaced with 500 μL of a 20:1 mixture of FBS-free RPMI 1640 and (3-(4,5-dimethylthiazol-2-yl)-2,5-diphenyl-tetrazolium bromide (MTT, 5 mg/mL stock in PBS). The cells were incubated for 2 h under the same conditions and then the medium was removed and replaced with DMSO (500 μL/well). The absorbance of each well was recorded after a 1:5 dilution in DMSO at 555 nm on a microplate reader. Viability was calculated by the absorbance relative to the vehicle control. Values are reported as the mean±standard deviation (n=3).

The conditions of data set [3]: 5 μM, 50 equiv analyte, 37° C., 30 min.
Procedure: For instance, transition metals like Cu(II) can facilitate ester hydrolysis via Lewis acid-mediated ester activation. Additionally, various reactive oxygen and nitrogen that can interact with the ester bond were also tested. Lastly, we also examined reactive sulfur species, which are known to reduce aryl nitro groups.
Analyte Selectivity Assay for BL660-NTR. […] Light was collected within 15 min after mixing, and the signal enhancement was determined relative to control wells not treated with analyte. The total volume of each well was 100 μL [PBS (pH 7.4) with 0.5% DMSO]. Metal ion solutions were prepared by dissolving in MilliQ H2O before use. Superoxide anion was added as a solution of potassium superoxide in DMSO. Hydroxide radical was generated according to the previously reported literature. Similarly, peroxynitrite was prepared according to the reported literature. NO was generated in situ from a solution of DEA-NONOate in degassed PBS buffer. Glutathione reduced form was maintained at the final concentration of 5 mM in the reaction mixture. H2S was generated just before use according to the reported literature. NTR was used one unit per well. All other analytes were prepared by dilution or dissolution from commercially available sources.

Sequence of NTR (P38489 whole entry): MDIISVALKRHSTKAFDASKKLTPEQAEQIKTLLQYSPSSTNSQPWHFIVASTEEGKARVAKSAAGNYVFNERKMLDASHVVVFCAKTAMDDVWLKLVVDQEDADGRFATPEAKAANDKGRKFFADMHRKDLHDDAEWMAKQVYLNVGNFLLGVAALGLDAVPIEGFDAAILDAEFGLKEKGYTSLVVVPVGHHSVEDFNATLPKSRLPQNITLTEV

Take `CCN(CC)c1ccc(C=CC=CC2=NC(C(=O)OC(c3ccc([N+](=O)[O-])cc3)C(C)C)CS2)cc1` (stereo not shown) [BL660-NTR]: the “difference in BL intensity, hypoxic versus normoxic” value in the data set with A549 cells [1] (1% versus 20% oxygen) turned out to be 4.5 fold. Also, in the data set with A549 cells [1] (A549 cells in 1% oxygen for 2 days, 10 μM probe 60 minutes), the “total luminescent counts, hypoxic lysates” value is 5.0±0.1×10^5 total luminescent counts. For the same compound, the “total luminescent counts, normoxic lysates” value in the data set with A549 cells [1] (A549 cells in 20% oxygen for 2 days, 10 μM probe 60 minutes) is reported as 1.1±0.03×10^5 total luminescent counts. For the same compound, the “total luminescence signal, NTR absent” value at NTR (BL660-NTR 5 μM and luciferase without NTR) was “significantly attenuated”. Further, the “total luminescence count, probe, NTR and luciferase all present” value on NTR (BL660-NTR 5 μM, NTR 0.1 units, luciferase 0.0125 mg/mL) was “notable increase in the total luminescence count”. Also, the “BL signal in the tumors (in words)” value in the data set on A549-Luc2 tumors (5 to 75 min after retroorbital injection, 2.2 μmol/kg) was “strong BL signals were apparent in all tumors”. Further, the “difference in total luminescent count, BL660-NTR versus Compound 4” value in the data set on A549-Luc2 tumors (15 mins after retroorbital injection) is given as 5.2 fold. Also, in the data set with A549-Luc2 tumors (15 mins after retroorbital injection, 2.2 μmol/kg, NU/J mice with A549-Luc2 tumors), the “total luminescent count in tumors after 15 mins” value is 16.6±2.5×10^3 total luminescent count. Besides, the cell viability entry in the data set with A549 cells [2] is recorded as “No loss of cell viability”. Besides, the “activation by analytes compared to the NTR positive control” value in data set [3] is listed as at most 10%.
